According to patent publication US20220056040A1, “NOVEL 3-(2-BROMO-4-ALKYNYL-6-ALKOXYPHENYL)-3-PYRROLIN-2-ONES AND THEIR USE AS HERBICIDES” (Bayer Aktiengesellschaft, priority 2019, published 2022):

Experiments:
Format in all cases: in vivo
Alopecurus myosuroides [1] = test: Pre-emergence herbicidal effect; conditions: 80 g/ha, visual score after 3 weeks vs untreated controls
From the text: (§1) Seeds of monocotyledonous and dicotyledonous weed plants and crop plants are laid out in sandy loam soil in wood-fiber pots and covered with soil. The compounds of the invention, formulated in the form of wettable powders (WP) or as emulsion concentrates (EC), are then applied to the surface of the covering soil as aqueous suspension or emulsion at a water application rate equating to 600 to 800 L/ha with addition of 0.2% wetting agent. After the treatment, the pots are placed in a greenhouse and kept under good growth conditions for the trial plants. The damage to the test plants is scored visually after a test period of 3 weeks by comparison with untreated controls (herbicidal activity in percent (%): 100% activity=the plants have died, 0% activity=like control plants).

Avena fatua = test: Pre-emergence herbicidal effect; conditions: 80 g/ha, visual score after 3 weeks vs untreated controls
From the text: as §1

Digitaria sanguinalis [2] = test: Pre-emergence herbicidal effect; conditions: 80 g/ha, visual score after 3 weeks vs untreated controls
From the text: as §1

Echinochloa crus-galli [3] = test: Pre-emergence herbicidal effect; conditions: 80 g/ha, visual score after 3 weeks vs untreated controls
From the text: as §1

Lolium rigidum [4] = test: Pre-emergence herbicidal effect; conditions: 80 g/ha, visual score after 3 weeks vs untreated controls
From the text: as §1

Setaria viridis [5] = test: Pre-emergence herbicidal effect; conditions: 80 g/ha, visual score after 3 weeks vs untreated controls
From the text: as §1

Alopecurus myosuroides [6] = test: Post-emergence herbicidal effect; conditions: 80 g/ha, post-emergence at one-leaf stage, visual score after about 3 weeks
Experimental: (§2) Seeds of monocotyledonous and dicotyledonous weed and crop plants are laid out in sandyloam soil in wood-fiber pots, covered with soil and cultivated in a greenhouse under good growth conditions. 2 to 3 weeks after sowing, the test plants are treated at the one-leaf stage. The compounds of the invention, formulated in the form of wettable powders (WP) or as emulsion concentrates (EC), are then sprayed onto the green parts of the plants as aqueous suspension or emulsion at a water application rate equating to 600 to 800 l/ha with addition of 0.2% wetting agent. After the test plants have been left to stand in the greenhouse under optimal growth conditions for about 3 weeks, the action of the preparations is assessed visually in comparison to untreated controls (herbicidal action in percent (%): 100% activity=the plants have died, 0% activity=like control plants).

Echinochloa crus-galli [7] = test: Post-emergence herbicidal effect; conditions: 80 g/ha, post-emergence at one-leaf stage, visual score after about 3 weeks
Experimental: as §2

Hordeum murinum = test: Post-emergence herbicidal effect; conditions: 80 g/ha, post-emergence at one-leaf stage, visual score after about 3 weeks
Experimental: as §2

Lolium rigidum [8] = test: Post-emergence herbicidal effect; conditions: 80 g/ha, post-emergence at one-leaf stage, visual score after about 3 weeks
Experimental: as §2

Setaria viridis [9] = test: Post-emergence herbicidal effect; conditions: 80 g/ha, post-emergence at one-leaf stage, visual score after about 3 weeks
Experimental: as §2

Digitaria sanguinalis [10] = test: Post-emergence herbicidal effect; conditions: 80 g/ha, post-emergence at one-leaf stage, visual score after about 3 weeks
Experimental: as §2

CC#Cc1cc(Br)c(C2=C(OC(=O)OCC)C3(CCC4(CC3)OCCO4)NC2=O)c(OC)c1 [Example 1.2.01]
Pre-emergence action ALOMY (herbicidal activity in percent) (Alopecurus myosuroides [1]): 90% | Pre-emergence action AVEFA (herbicidal activity in percent) (Avena fatua): 100% | Pre-emergence action DIGSA (herbicidal activity in percent) (Digitaria sanguinalis [2]): 100% | Pre-emergence action ECHCG (herbicidal activity in percent) (Echinochloa crus-galli [3]): 100% | Pre-emergence action LOLRI (herbicidal activity in percent) (Lolium rigidum [4]): 100% | Pre-emergence action SETVI (herbicidal activity in percent) (Setaria viridis [5]): 100% | Post-emergence action against ALOMY (herbicidal action in percent) (Alopecurus myosuroides [6]): 100% | Post-emergence action against ECHCG (herbicidal action in percent) (Echinochloa crus-galli [7]): 100% | Post-emergence action against HORMU (herbicidal action in percent) (Hordeum murinum): 100% | Post-emergence action against LOLRI (herbicidal action in percent) (Lolium rigidum [8]): 100% | Post-emergence action against SETVI (herbicidal action in percent) (Setaria viridis [9]): 100%

CC#Cc1cc(Br)c(C2=C(OC(=O)OCC)C3(CCOCC3)NC2=O)c(OC)c1 [Example 1.1.03]
Post-emergence action against ALOMY (herbicidal action in percent) (Alopecurus myosuroides [6]): 80% | Post-emergence action against DIGSA (herbicidal action in percent) (Digitaria sanguinalis [10]): 100% | Post-emergence action against ECHCG (herbicidal action in percent) (Echinochloa crus-galli [7]): 100% | Post-emergence action against LOLRI (herbicidal action in percent) (Lolium rigidum [8]): 100% | Post-emergence action against SETVI (herbicidal action in percent) (Setaria viridis [9]): 100%

CC#Cc1cc(Br)c(C2=C(OC(=O)OC)C3(CCOCC3)NC2=O)c(OC)c1 [Example 1.1.02, 3-[2-Bromo-6-methoxy-4-(prop-1-yn-1-yl)phenyl]-2-oxo-8-oxa-1-azaspiro[4.5]dec-3-en-4-yl methyl carbonate]
Pre-emergence action ALOMY (herbicidal activity in percent) (Alopecurus myosuroides [1]): 90% | Pre-emergence action AVEFA (herbicidal activity in percent) (Avena fatua): 80% | Pre-emergence action DIGSA (herbicidal activity in percent) (Digitaria sanguinalis [2]): 100% | Pre-emergence action ECHCG (herbicidal activity in percent) (Echinochloa crus-galli [3]): 80% | Pre-emergence action LOLRI (herbicidal activity in percent) (Lolium rigidum [4]): 100% | Pre-emergence action SETVI (herbicidal activity in percent) (Setaria viridis [5]): 100% | Post-emergence action against ALOMY (herbicidal action in percent) (Alopecurus myosuroides [6]): 100% | Post-emergence action against DIGSA (herbicidal action in percent) (Digitaria sanguinalis [10]): 100% | Post-emergence action against ECHCG (herbicidal action in percent) (Echinochloa crus-galli [7]): 100% | Post-emergence action against LOLRI (herbicidal action in percent) (Lolium rigidum [8]): 100% | Post-emergence action against SETVI (herbicidal action in percent) (Setaria viridis [9]): 100%

CC#Cc1cc(Br)c(C2=C(OC(=O)OC)C3(CCC(OCCOC)CC3)NC2=O)c(OC)c1 (stereo not drawn) [Example 1.3.06]
Pre-emergence action ALOMY (herbicidal activity in percent) (Alopecurus myosuroides [1]): 100% | Pre-emergence action AVEFA (herbicidal activity in percent) (Avena fatua): 100% | Pre-emergence action DIGSA (herbicidal activity in percent) (Digitaria sanguinalis [2]): 100% | Pre-emergence action ECHCG (herbicidal activity in percent) (Echinochloa crus-galli [3]): 100% | Pre-emergence action LOLRI (herbicidal activity in percent) (Lolium rigidum [4]): 100% | Pre-emergence action SETVI (herbicidal activity in percent) (Setaria viridis [5]): 100%

C=CCOC1CCC2(CC1)NC(=O)C(c1c(Br)cc(C#CC)cc1OC)=C2OC(=O)OC (stereo not drawn) [Example 1.3.02]
Pre-emergence action ALOMY (herbicidal activity in percent) (Alopecurus myosuroides [1]): 100% | Pre-emergence action AVEFA (herbicidal activity in percent) (Avena fatua): 90% | Pre-emergence action DIGSA (herbicidal activity in percent) (Digitaria sanguinalis [2]): 100% | Pre-emergence action ECHCG (herbicidal activity in percent) (Echinochloa crus-galli [3]): 100% | Pre-emergence action LOLRI (herbicidal activity in percent) (Lolium rigidum [4]): 100% | Pre-emergence action SETVI (herbicidal activity in percent) (Setaria viridis [5]): 100% | Post-emergence action against ALOMY (herbicidal action in percent) (Alopecurus myosuroides [6]): 100% | Post-emergence action against DIGSA (herbicidal action in percent) (Digitaria sanguinalis [10]): 100% | Post-emergence action against ECHCG (herbicidal action in percent) (Echinochloa crus-galli [7]): 90% | Post-emergence action against LOLRI (herbicidal action in percent) (Lolium rigidum [8]): 80% | Post-emergence action against SETVI (herbicidal action in percent) (Setaria viridis [9]): 100%

CC#Cc1cc(Br)c(C2=C(OC(=O)OCC)C3(CCC(OC(C)C)CC3)NC2=O)c(OC)c1 (stereo not drawn) [Example 1.3.12]
Pre-emergence action ALOMY (herbicidal activity in percent) (Alopecurus myosuroides [1]): 100% | Pre-emergence action AVEFA (herbicidal activity in percent) (Avena fatua): 80% | Pre-emergence action DIGSA (herbicidal activity in percent) (Digitaria sanguinalis [2]): 100% | Pre-emergence action ECHCG (herbicidal activity in percent) (Echinochloa crus-galli [3]): 100% | Pre-emergence action LOLRI (herbicidal activity in percent) (Lolium rigidum [4]): 100% | Pre-emergence action SETVI (herbicidal activity in percent) (Setaria viridis [5]): 100%

CC#Cc1cc(Br)c(C2=C(O)C3(CCC(OCCOC)CC3)NC2=O)c(OC)c1 (stereo not drawn) [Example 1.3.05]
Pre-emergence action ALOMY (herbicidal activity in percent) (Alopecurus myosuroides [1]): 100% | Pre-emergence action AVEFA (herbicidal activity in percent) (Avena fatua): 90% | Pre-emergence action DIGSA (herbicidal activity in percent) (Digitaria sanguinalis [2]): 100% | Pre-emergence action ECHCG (herbicidal activity in percent) (Echinochloa crus-galli [3]): 100% | Pre-emergence action LOLRI (herbicidal activity in percent) (Lolium rigidum [4]): 100% | Pre-emergence action SETVI (herbicidal activity in percent) (Setaria viridis [5]): 100%

CC#Cc1cc(Br)c(C2=C(OC(=O)C(C)C)C3(CCOCC3)NC2=O)c(OC)c1 [Example 1.1.04]
Post-emergence action against DIGSA (herbicidal action in percent) (Digitaria sanguinalis [10]): 100%
